Test results: patent US12030877B2, “Prostaglandin E synthase inhibitors and methods for utilizing the same” (University of Kentucky Research Foundation, priority 2016, dated 2024)

Experiments:
mPGES-1 Mouse enzyme = biological target: T1, mPGES-1 Mouse enzyme (Mus musculus, UniProt Q9JM51); experiment: mPGES-1 enzyme activity assay (PGE2 enzyme immunoassay), mouse enzyme; format: biochemical; conditions: for IC50: recombinant microsomal enzyme, means ± SD, triplicate, read-out: IC50 against mPGES-1, Mouse enzyme; for inhibition at 10 µM: compound at a concentration of 10 μM, read-out: % inhibition of the compound against mPGES-1, Mouse enzyme
T1 construct: made in house; host or cells: FreeStyle 293-F cells, crude microsomal preparation
T1 sequence (Q9JM51 1-153): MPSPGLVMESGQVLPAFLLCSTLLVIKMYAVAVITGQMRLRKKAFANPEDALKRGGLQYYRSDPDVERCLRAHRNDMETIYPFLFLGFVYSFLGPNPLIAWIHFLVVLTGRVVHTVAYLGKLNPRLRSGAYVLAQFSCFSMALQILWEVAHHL
Procedure: (§1) Studies were conducted to characterize the inhibitory activity against recombinant mPGES-1 of the compounds synthesized in accordance with Examples 1-4, and disclosed herein.
(§2) Briefly, FreeStyle 293-F cells were cultured following manufacturer's manual in FreeStyle 293 expression medium on orbit rotate shaker in 8% CO2 incubator at 37° C. Cells were transfected with 1.5 μg/mL of mPGES-1/pcDNA3 construct using FreeStyle Max reagent at a cell density of 1×10^6 for 2 days. Transfected cells were collected, washed, and sonicated in TSES buffer (15 mM Tris-HCl, pH 8.0 plus 0.25 M sucrose, 0.1 mM EDTA and 1 mM DTT) on ice. The broken cells were first centrifuged at 12,500×g for 10 min. The supernatant was further centrifuged at 105,000×g for 1 hr at 4° C. The pellet was washed and homogenized in PBS buffer. The crude microsomal mPGES-1 preparation was aliquoted and stored at −80° C. The crude protein concentration was 8 mg/mL.
(§3) The enzyme activity assays were performed on ice in 1.5 ml microfuge tubes by using the expressed mPGES-1. The reaction mixture contained: 0.2 M Na2HPO4/NaH2PO4, pH 7.2, 10 μL; 0.1 M GSH, 2.5 μL; diluted microsomal enzyme (80 μg/mL), 1 μL; PGH2 (0.31 mM in DMF), 5 μL; 1 μL inhibitor; and H2O in a final reaction volume of 100 μL. PGH2 was stored in dry ice and used to initiate the reaction.
(§4) Compounds were incubated with the enzyme for 15 min at room temperature before the addition of cold PGH2 (1 μM final) to initiate the enzyme reaction. After 30 s, 10 μL of SnCl2 (40 mg/mL) in ethanol was added to stop the reaction. The nonenzymatic conversion of PGH2 to PGE2 was performed in the same buffer devoid of enzyme. The reaction mixture was placed on ice until PGE2 production was determined by the PGE2 enzyme immunoassay as described earlier. IC50 values of the inhibitors were calculated by using the GraphPad Prism 4.0 program. The results are set forth in the tables provided in Examples 7-10.

mPGES-1 = biological target: T2, mPGES-1 (Homo sapiens, UniProt O14684); experiment: mPGES-1 enzyme activity assay (PGE2 enzyme immunoassay), human enzyme; format: biochemical; set-up: made in house; host or cells: FreeStyle 293-F cells, crude microsomal preparation; conditions: recombinant microsomal enzyme; means ± SD, triplicate; read-out: IC50 against mPGES-1, Human enzyme
T2 sequence (O14684 1-152): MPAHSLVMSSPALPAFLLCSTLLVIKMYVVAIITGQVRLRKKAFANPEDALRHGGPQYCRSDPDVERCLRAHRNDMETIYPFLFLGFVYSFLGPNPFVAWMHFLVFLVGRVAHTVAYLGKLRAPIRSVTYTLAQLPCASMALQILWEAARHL
Procedure: as §1, §2, §3, §4

Row | Compound | IC50 (mPGES-1 Mouse enzyme) | IC50 (mPGES-1) | inhibition at 10 µM (mPGES-1 Mouse enzyme)
1 | O=C(O)CN1C(=O)S/C(=C2\C(=O)N(CCCCC3CCCCC3)c3ccccc32)C1=O [II-09] | 947 ± 183 nM | 499 ± 108 nM | –
2 | O=C(O)CN1C(=O)S/C(=C2\C(=O)N(CCCOc3ccccc3)c3ccccc32)C1=O [II-10] | – | 805 ± 100 nM | 41%
3 | O=C(O)CN1C(=O)S/C(=C2\C(=O)N(CCCOc3ccc4ccccc4c3)c3ccccc32)C1=O [II-11] | 1020 ± 131 nM | 1680 ± 168 nM | –
4 | CCCCCN1C(=O)/C(=C2\SC(=O)N(CC(=O)O)C2=O)c2ccccc21 [II-12] | – | 1660 ± 168 nM | 35%
5 | CCCCCCN1C(=O)/C(=C2\SC(=O)N(CC(=O)O)C2=O)c2ccccc21 [II-13] | – | 1070 ± 116 nM | 57%
6 | CCCCCCCN1C(=O)/C(=C2\SC(=O)N(CC(=O)O)C2=O)c2ccccc21 [II-14] | – | 324 ± 44 nM | 67%
7 | CCCCCCCCN1C(=O)/C(=C2\SC(=O)N(CC(=O)O)C2=O)c2ccccc21 [II-15] | 2680 ± 302 nM | 314 ± 44 nM | –
8 | CCCCCCCCCN1C(=O)/C(=C2\SC(=O)N(CC(=O)O)C2=O)c2ccccc21 [II-16] | 1400 ± 217 nM | 199 ± 32 nM | –
9 | CCCCCCCCCCN1C(=O)/C(=C2\SC(=O)N(CC(=O)O)C2=O)c2ccccc21 [II-17] | 935 ± 135 nM | 217 ± 30 nM | –
10 | O=C(O)CN1C(=O)S/C(=C2\C(=O)N(CC3CCCCC3)c3ccc(-c4ccccc4)cc32)C1=O [II-18] | 394 ± 58 nM | 221 ± 47 nM | –
11 | O=C(O)CN1C(=O)S/C(=C2\C(=O)N(CC3CCCCC3)c3ccc(-c4ccc(-c5ccccc5)cc4)cc32)C1=O [II-19] | 1020 ± 162 nM | 154 ± 20 nM | –
12 | O=C(O)CN1C(=O)S/C(=C2\C(=O)N(CC3CCCCC3)c3ccc(-c4ccc5ccccc5c4)cc32)C1=O [II-20] | 244 ± 31 nM | 531 ± 90 nM | –
13 | O=C(O)CN1C(=O)S/C(=C2\C(=O)N(CC3CCCCC3)c3ccc(-c4ccc(C#Cc5ccccc5)cc4)cc32)C1=O [II-21] | 1960 ± 348 nM | 91 ± 23 nM | –
14 | O=C(O)CN1C(=O)S/C(=C2\C(=O)N(CC3CCCCC3)c3ccc(-c4ccc(C#CC5CCCCC5)cc4)cc32)C1=O [II-22] | 685 ± 406 nM | 25 ± 5 nM | –
15 | O=C(O)CN1C(=O)S/C(=C2\C(=O)Nc3ccc(-c4ccccc4)cc32)C1=O [II-23] | – | 8020 ± 1050 nM | 63%
16 | O=C(O)CN1C(=O)S/C(=C2\C(=O)N(CCC3CCCCC3)c3ccc(-c4ccccc4)cc32)C1=O [II-24] | 777 ± 364 nM | 32 ± 6 nM | –
17 | O=C(O)CN1C(=O)S/C(=C2\C(=O)N(CCCC3CCCCC3)c3ccc(-c4ccccc4)cc32)C1=O [II-25] | 1220 ± 430 nM | 16 ± 4 nM | –
18 | O=C(O)CN1C(=O)S/C(=C2\C(=O)N(CCCCC3CCCCC3)c3ccc(-c4ccccc4)cc32)C1=O [II-26] | 1130 ± 244 nM | 13 ± 3 nM | –
19 | O=C(O)CN1C(=O)S/C(=C2\C(=O)N(Cc3ccc(Cl)cc3)c3ccc(-c4ccccc4)cc32)C1=O [II-27] | 13200 ± 5080 nM | 54 ± 14 nM | –
20 | O=C1NC(=O)/C(=C2/C(=O)N(CCCC3CCCCC3)c3ccccc32)S1 [II-28] | – | 1390 ± 273 nM | 0%
21 | O=C1NC(=S)S/C1=C1\C(=O)N(CCCC2CCCCC2)c2ccccc21 [II-29] | – | 1260 ± 335 nM | 29%
22 | O=C(O)CN1C(=O)/C(=C2\SC(=S)NC2=O)c2ccccc21 [II-30] | – | 211 ± 67 nM | 6.1%
23 | O=C(O)CN1C(=O)/C(=C2\SC(=O)N(CCCCc3ccccc3)C2=O)c2ccccc21 [II-31] | – | 962 ± 159 nM | 64%
24 | O=C(O)CN1C(=O)/C(=C2\SC(=O)N(CCCCC3CCCCC3)C2=O)c2ccccc21 [II-32] | – | 2560 ± 442 nM | 44%
25 | O=C(CCCN1C(=O)C=CC1=O)Nc1ccc2c(c1)Cc1ccccc1-2 [III-01] | – | 1920 ± 300 nM | 48%
